Experimental data taken from patent US20250353860A1, “PIPERIDINE CARBOXAMIDE AZAINDANE DERIVATIVE, METHOD FOR PREPARING SAME, AND USE THEREOF” (BRISE PHARMACEUTICALS CO., LTD., priority 2022, published 2025).

Target: T1, CGRP receptor (Homo sapiens, UniProt O60894+Q16602)
Experiment: Inhibition of CGRP signaling pathway (cAMP, HTRF) in CHO-K1 cells expressing human CGRP receptors
Type: cell-based
Parameters: host or cells: CHO-K1
Conditions: [α-CGRP]=10 ng/ml; increase in cAMP levels; read-out: IC50 of the inhibitory effect on the CGRP signaling pathway in CHO-K1 cells expressing human CGRP receptors
Procedure: (§1) The inhibitory effect of the CGRP signaling pathway in vitro is evaluated by measuring the cAMP level. The principle is that after CGRP binds to the CGRP receptor, the CGRP signaling pathway is activated, inducing an increase in the cAMP level. […] The specific experimental method is as follows:
CHO-K1 cells expressing human CGRP receptor (CGRPR/CHO-K1, PerkinElmer, ES-420-C) were cultured in F12K+10% FBS+400 μg/mL G418+10 μg/mL Blasticidin medium, and the cells were collected in the logarithmic growth phase. According to the instructions of the kit, the cells were resuspended in Stimulation Buffer comprising 0.5 mM IBMX, and 5 μL of the cell suspension was added to each well of a 96-well microplate (Cisbio, 66PL96025) at a cell density of 15,000 cells/well. 2.5 μL of gradient diluted compound solution was added to each well. After incubation at 37° C. for 30 minutes, 2.5 μL of 40 ng/ml human α-CGRP (Bachem, H-1470,0500) diluted in Stimulation Buffer comprising 0.5 mM IBMX was added to each well to a final concentration of 10 ng/ml. After incubation at 37° C. for 30 minutes, 5 μL of Anti-cAMP-Cryptate solution and 5 μL of cAMP-d2 solution were added to each well. After incubation at room temperature for 60 minutes, the HTRF signal was read using a microplate reader (Molecular Devices). Graphpad Prism was used to calculate the IC50 value of the compound's inhibitory effect on the increase in cAMP levels based on the compound concentration and HTRF signal.

| SMILES | IC50 [nM] |
| --- | --- |
| CC1C(c2c(F)ccc(F)c2F)CC(NC(=O)c2cc3c(s2)CCC2(C3)C(=O)Nc3ncccc32)C(=O)N1CC(F)(F)F (stereo not shown) [Example 2, N-(6-methyl-2-oxo-1-(2,2,2-trifluoroethyl)-5-(2,3,6-trifluorophenyl)piperidin-3-yl)-2′-oxo-1′,2′,6,7-tetrahydro-4H-spiro[benzo[b]thiophene-5,3′-pyrrolo[2,3-b]pyridine]-2-carboxamide] | 250 |
| CC1C(c2c(F)ccc(F)c2F)CC(NC(=O)c2cc3c(o2)CC2(C3)C(=O)Nc3ncccc32)C(=O)N1CC(F)(F)F (stereo not shown) [Example 4, N-(6-methyl-2-oxo-1-(2,2,2-trifluoroethyl)-5-(2,3,6-trifluorophenyl)piperidin-3-yl)-2′-oxo-1′,2′,4,6-tetrahydrospiro[cyclopenta[b]furan-5,3′-pyrrolo[2,3-b]pyridine]-2-carboxamide] | 199 |
| CC1C(c2c(F)ccc(F)c2F)CC(NC(=O)c2cc3c(o2)CCC2(C3)C(=O)Nc3ncccc32)C(=O)N1CC(F)(F)F (stereo not shown) [Example 1, N-(6-methyl-2-oxo-1-(2,2,2-trifluoroethyl)-5-(2,3,6-trifluorophenyl)piperidin-3-yl)-2′-oxo-1′,2′,6,7-tetrahydro-4H-spiro[benzofuran-5,3′-pyrrolo[2,3-b]pyridine]-2-carboxamide] | 106 |
| CC1C(c2c(F)ccc(F)c2F)CC(NC(=O)c2cc3c(s2)CC2(C3)C(=O)Nc3ncccc32)C(=O)N1CC(F)(F)F (stereo not shown) [Example 3, N-(6-methyl-2-oxo-1-(2,2,2-trifluoroethyl)-5-(2,3,6-trifluorophenyl)piperidin-3-yl)-2′-oxo-1′,2′,4,6-tetrahydrospiro[cyclopenta[b]thiophene-5,3′-pyrrolo[2,3-b]pyridine]-2-carboxamide] | 64.7 |

Target: T1, CGRP receptor
Experiment: Inhibition of CGRP signaling pathway (cAMP, HTRF) in SK-N-MC cells
Type: cell-based
Parameters: SK-N-MC (ATCC, HTB-10) cells endogenously expressing CGRP receptor; host or cells: SK-N-MC
Conditions: [α-CGRP]=10 ng/mL; increase in cAMP levels; read-out: IC50 of the inhibitory effect on the CGRP signaling pathway in SK-N-MC cells
Procedure: as §1
cAMP was determined using the CAMP-GS DYNAMIC KIT detection kit (Cisbio, 62AM4PEB).
SK-N-MC (ATCC, HTB-10) cells endogenously expressing CGRP receptor were cultured in EMEM+10% FBS medium and the cells were collected during the logarithmic growth phase. According to the instructions of the kit, the cells were resuspended in Stimulation Buffer comprising 0.5 mM IBMX, and 5 μL of the cell suspension was added to each well of a 96-well microplate (Cisbio, 66PL96025) at a cell density of 15,000 cells/well, 2.5 μL of gradient diluted compound solution was added to each well. After incubation at 37° C. for 30 minutes, 2.5 μL of 40 ng/ml human α-CGRP (Bachem, H-1470.0500) diluted in Stimulation Buffer comprising 0.5 mM IBMX was added to each well to a final concentration of 10 ng/ml. After incubation at 37° C. for 30 minutes, 5 μL of Anti-cAMP-Cryptate solution and 5 μL of cAMP-d2 solution were added to each well. After incubation at room temperature for 60 minutes, the HTRF signal was read using a microplate reader (Molecular Devices). Graphpad Prism was used to calculate the IC50 value of the compound's inhibitory effect on the increase in cAMP levels based on the compound concentration and HTRF signal.

| SMILES | IC50 [nM] |
| --- | --- |
| C[C@@H]1[C@H](c2c(F)ccc(F)c2F)C[C@H](NC(=O)c2cc3c([nH]2)CC2(C3)C(=O)Nc3ncccc32)C(=O)N1CC(F)(F)F (stereo partly drawn) [Example 10, N-((3S,5S,6R)-6-methyl-2-oxo-1-(2,2,2-trifluoroethyl)-5-(2,3,6-trifluorophenyl)piperidin-3-yl)-2′-oxo-1′,2′,4,6-tetrahydro-1H-spiro[cyclopenta[b]pyrrole-5,3′-pyrrolo[2,3-b]pyridine]-2-carboxamide] | 6.8 |
| C[C@@H]1[C@H](c2c(F)ccc(F)c2F)C[C@H](NC(=O)c2nc3c(s2)CC2(C3)C(=O)Nc3ncccc32)C(=O)N1CC(F)(F)F (stereo partly drawn) [Example 11, N-((3S,5S,6R)-6-methyl-2-oxo-1-(2,2,2-trifluoroethyl)-5-(2,3,6-trifluorophenyl)piperidin-3-yl)-2′-oxo-1′,2′,4,6-tetrahydrospiro[cyclopenta[d]thiazole-5,3′-pyrrolo[2,3-b]pyridine]-2-carboxamide] | 11 |
| C[C@@H]1[C@H](c2c(F)ccc(F)c2F)C[C@H](NC(=O)c2cc3c([nH]2)CCC2(C3)C(=O)Nc3ncccc32)C(=O)N1CC(F)(F)F (stereo partly drawn) [Example 13, N-((3S,5S,6R)-6-methyl-2-oxo-1-(2,2,2-trifluoroethyl)-5-(2,3,6-trifluorophenyl)piperidin-3-yl)-2′-oxo-1,1′,2′,4,6,7-hexahydrospiro[indole-5,3′-pyrrolo[2,3-b]pyridine]-2-carboxamide] | 0.89 |
| C[C@@H]1[C@H](c2c(F)ccc(F)c2F)C[C@H](NC(=O)c2nc3c(s2)CC2(CC3)C(=O)Nc3ncccc32)C(=O)N1CC(F)(F)F (stereo partly drawn) [Example 9, N-((3S,5S,6R)-6-methyl-2-oxo-1-(2,2,2-trifluoroethyl)-5-(2,3,6-trifluorophenyl)piperidin-3-yl)-2′-oxo-1′,2′,4,7-tetrahydro-5H-spiro[benzo[d]thiazole-6,3′-pyrrolo[2,3-b]pyridine]-2-carboxamide] | > 100 |
| C[C@@H]1[C@H](c2c(F)ccc(F)c2F)C[C@H](NC(=O)c2nc3c(o2)CCC2(C3)C(=O)Nc3ncccc32)C(=O)N1CC(F)(F)F (stereo partly drawn) [Example 12, N-((3S,5S,6R)-6-methyl-2-oxo-1-(2,2,2-trifluoroethyl)-5-(2,3,6-trifluorophenyl)piperidin-3-yl)-2′-oxo-1′,2′,6,7-tetrahydro-4H-spiro[benzo[d]oxazole-5, 3′-pyrrolo[2,3-b]pyridine]-2-carboxamide] | 53.6 |

Target: T1, CGRP receptor
Experiment: Affinity for human CGRP receptor ([125I]h-CGRPα competition, CHO cell membranes)
Type: binding
Parameters: host or cells: CHO-K1
Conditions: 0.03 nM [125I]h-CGRPα; Cheng Prusoff; read-out: Ki of the affinity determination to human CGRP receptor
Procedure: The cell membrane homogenate of CHO cells expressing human CGRP receptor (comprising 16 μg of protein) was incubated with 0.03 nM [^125I]h-CGRPα and gradiently diluted test samples in buffer (50 mM Hepes-NaOH (pH 7.4), 10 mM MgCl2, 4 mM KCl, 10 mM […], 1 mM EDTA, 1 μM phosphorylation amide, 0.3% BSA and 0.04% bacitracin) at 22° C. for 90 minutes. A control group without the test sample was set up to obtain the highest binding signal of the experiment, and the non-specific binding of the experiment was determined by adding 1 μM non-isotope-labeled h-CGRPα to the control group. After the incubation, a glass fiber filter (GF/B, Packard) soaked with 0.3% PEI was placed in a 96-well cell collector (Unfilter, Packard), and the sample was quickly filtered under vacuum and rinsed several times with precooled buffer comprising 50 mM Tris-HCl and 150 mM NaCl. After the filter was dried, scintillation fluid (Microscint 0, Packard) was added and the radioactive signal value was measured using a scintillation counter (Topcount, Packard). The results are expressed as the percentage of inhibition of specific binding of the radioligand. Non-isotope labeled h-CGRPα was used as a standard sample as a control. The test samples and standard samples were tested at multiple concentrations to obtain a competition curve with [^125I]h-CGRPα, thereby calculating the IC50) 20 of each sample. The inhibition constant Ki was further calculated using the Cheng Prusoff equation: Ki=IC50/(1+L/KD), wherein L represents the concentration of [^125I]h-CGRPα in the system (0.03 nM), and KD represents the dissociation constant between [^125I]h-CGRPα and the human CORP receptor in the system (0.06 nM).

| SMILES | Ki [nM] |
| --- | --- |
| C[C@@H]1[C@H](c2ccccc2)C[C@H](NC(=O)c2cnc3c(c2)C[C@@]2(C3)C(=O)Nc3ncccc32)C(=O)N1CC(F)(F)F [Ubrogepant, reference compound] | 0.027 |
